Measured values taken from patent US10016382B2, “Method for decreasing skeletal muscle damage and/or oxidative stress in mammals” (LONZA INC., priority 2014, dated 2018).

Test: Body composition by GE Prodigy DEXA scan, Example 1
Assay type: in vivo, dog
Details: for % Fat, Mean / BMC, Mean / Lean Mass, Mean / Total Mass, Mean: Table 14; for BMC-Change / Lean Mass-Change / Total Mass-Change / BMC-Final / BMC-Initial / Lean Mass-Final / Lean Mass-Initial / Total Mass-Final / Total Mass-Initial: Table 20, mean ± SEM; for BMC-Change / Lean Mass-Change / Total Mass-Change: beginning to completion of study
Experimental: Forty Labrador Retrievers were divided into two equal groups of twenty (11 males, 9 females) based on gender, body weight (“BW”), genetics, and lean mass and fed a low L-carnitine basal diet for a 90 day feeding period. The experimental dogs were fed the low L-carnitine basal for 10 days prior to the start of the study. Twenty of the Labs received 250 mg/day of L-carnitine (batch D22312) and 3.75 g of sugar and twenty of the Labs received 4 g/d of sugar. The dogs were scanned with a GE Prodigy DEXA system immediately prior to beginning of the study and the determined lean mass was utilized as a key component for helping assort the dogs equally between the control and L-carnitine group. A serum sample was obtained from each dog to determine a baseline value for blood biomarkers that were used to evaluate muscle damage and antioxidant status. The L-carnitine and control performance dogs were put through a weekly running program consisting of running sprint type shorter runs of higher intensity twice weekly (1200 yds/session increasing to 2400 yds/session over 10 wk period) and running endurance longer runs one time per wk (increasing from 5 miles/session to 10 miles per session over a 10 wk period). Each performance dog also wore the Actical activity monitor during the last endurance run. The dogs were put through a 15 mile run that included mud, water, tall grass, and swimming. The dogs were timed when they completed the course. The dogs were encouraged by kennel staff that rode along in a 4 wheel all terrain type vehicle during all of the endurance runs. […] Immediately following the 15 mile endurance run, each dog was placed in a kennel and evaluated for recovery time for body temperature (every 15 minutes for 2 hr) and heart rate (every 2 minutes for 14 minutes). Twenty four hours after test dogs ran the last 15 endurance run, post-run serum samples were taken to evaluate biomarkers for muscle damage and antioxidant status. Each test dog was also scanned with the GE Prodigy DEXA to determine body composition change that occurred during the course of the 13 wk study. Body Scans: Each dog was scanned for body composition with a GE Prodigy Pro Fan beam instrument during the week prior to the beginning of the 90 day study and the first working day following the last endurance run. Body composition values were determined for % lean mass, % fat mass, and % bone ash for each dog. The difference in body composition was determined by comparing the beginning scan and last scan for each test dog. The final scans were completed 24 hr post run.

C[N+](C)(C)C[C@H](O)CC(=O)[O-] [L-carnitine]
Lean mass over the study (Ex.1, 250 mg/d, DEXA, initial vs final, either group): No increase in lean mass | Increase in % fat mass (Ex.1, 250 mg/d, females, beginning to end of study, vs 8.9% control females (p=0.22)): 4.2% | Increase in fat (Ex.1, 250 mg/d, females, over 90 day study, unpaired t-test (Table 20), vs 9% control females (p=0.30)): 5.8% | Fat mass at the end of the study (Ex.1, 250 mg/d, females, vs 11.1 lbs control (p=0.29)): 8.9 lbs | BMC Least Sq Mean (F, Final): 820.2 g | Fat Least Sq Mean (F, Final): 8.892 lbs | Fat Percentage Least Sq Mean (F, Final): 16.32 | Lean Mass Least Sq Mean (F, Final): 45.62 lbs | Total Mass Least Sq Mean (F, Final): 54.51 lbs | BMC Least Sq Mean (F, Initial): 766.5 g | Fat Least Sq Mean (F, Initial): 5.631 lbs | Fat Percentage Least Sq Mean (F, Initial): 11.03 | Lean Mass Least Sq Mean (F, Initial): 45.83 lbs | Total Mass Least Sq Mean (F, Initial): 51.14 lbs | BMC Least Sq Mean (Final): 861.6 g | Fat Least Sq Mean (Final): 8.558 lbs | Fat Percentage Least Sq Mean (Final): 14.52 | Lean Mass Least Sq Mean (Final): 49.83 lbs | Total Mass Least Sq Mean (Final): 58.39 lbs | BMC Least Sq Mean (Initial): 784.2 g | Fat Least Sq Mean (Initial): 5.779 lbs | Fat Percentage Least Sq Mean (Initial): 10.31 | Lean Mass Least Sq Mean (Initial): 49.87 lbs | Total Mass Least Sq Mean (Initial): 55.49 lbs | BMC Least Sq Mean (M, Final): 903 g | Fat Least Sq Mean (M, Final): 8.225 lbs | Fat Percentage Least Sq Mean (M, Final): 12.73 | Lean Mass Least Sq Mean (M, Final): 54.04 lbs | Total Mass Least Sq Mean (M, Final): 62.27 lbs | BMC Least Sq Mean (M, Initial): 801.8 g | Fat Least Sq Mean (M, Initial): 5.927 lbs | Fat Percentage Least Sq Mean (M, Initial): 9.582 | Lean Mass Least Sq Mean (M, Initial): 53.9 lbs | Total Mass Least Sq Mean (M, Initial): 59.83 lbs | % Fat, Mean (Sex F, Final): 16.3% | BMC, Mean (Sex F, Final): 820 g | Lean Mass, Mean (Sex F, Final): 45.6 lb | Total Mass, Mean (Sex F, Final): 54.5 lb | % Fat, Mean (Sex F, Initial): 12.1% | BMC, Mean (Sex F, Initial): 764 g | Lean Mass, Mean (Sex F, Initial): 44.7 lb | Total Mass, Mean (Sex F, Initial): 50.8 lb | % Fat, Mean (Sex M, Final): 12.7% | BMC, Mean (Sex M, Final): 903 g | Lean Mass, Mean (Sex M, Final): 54.0 lb | Total Mass, Mean (Sex M, Final): 62.3 lb | % Fat, Mean (Sex M, Initial): 9.6% | BMC, Mean (Sex M, Initial): 802 g | Lean Mass, Mean (Sex M, Initial): 53.9 lb | Total Mass, Mean (Sex M, Initial): 59.8 lb | % Fat, Mean (all dogs, Final): 14.3% | BMC, Mean (all dogs, Final): 866 g | Lean Mass, Mean (all dogs, Final): 50.3 lb | Total Mass, Mean (all dogs, Final): 58.8 lb | % Fat, Mean (all dogs, Initial): 10.6% | BMC, Mean (all dogs, Initial): 787 g | Lean Mass, Mean (all dogs, Initial): 50.3 lb | Total Mass, Mean (all dogs, Initial): 56.3 lb | BMC-Change (all dogs): 82 ± 46 n = 20 g | Lean Mass-Change (all dogs): 0.1 ± 0.3 n = 20 lb | Total Mass-Change (all dogs): 3.4 ± 0.8 n = 20 lb | BMC-Final (all dogs): 866 ± 26 n = 20 g | BMC-Initial (all dogs): 784 ± 44 n = 20 g | Lean Mass-Final (all dogs): 50.3 ± 1.5 n = 20 lb | Lean Mass-Initial (all dogs): 50.2 ± 1.5 n = 20 lb | Total Mass-Final (all dogs): 58.8 ± 1.7 n = 20 lb | Total Mass-Initial (all dogs): 55.3 ± 1.7 n = 20 lb | BMC-Change (♀): 58 ± 11 n = 9 g | Lean Mass-Change (♀): 0 ± 0.5 n = 9 lb | Total Mass-Change (♀): 4.7 ± 1.5 n = 9 lb | BMC-Final (♀): 820 ± 19 n = 9 g | BMC-Initial (♀): 762 ± 18 n = 9 g | Lean Mass-Final (♀): 45.6 ± 1.7 n = 9 lb | Lean Mass-Initial (♀): 45.7 ± 1.3 n = 9 lb | Total Mass-Final (♀): 54.5 ± 1.4 n = 9 lb | Total Mass-Initial (♀): 49.8 ± 1.1 n = 9 lb | BMC-Change (♂): 101 ± 84 n = 11 g | Lean Mass-Change (♂): 0.1 ± 0.5 n = 11 lb | Total Mass-Change (♂): 2.4 ± 0.6 n = 11 lb | BMC-Final (♂): 903 ± 42 n = 11 g | BMC-Initial (♂): 802 ± 80 n = 11 g | Lean Mass-Final (♂): 54 ± 1.7 n = 11 lb | Lean Mass-Initial (♂): 53.9 ± 1.8 n = 11 lb | Total Mass-Final (♂): 62.3 ± 2.6 n = 11 lb | Total Mass-Initial (♂): 59.8 ± 2.2 n = 11 lb | BMC Least Sq Mean (Treatment * Sex, F): 766.5 g | Fat Least Sq Mean (Treatment * Sex, F): 7.261 lbs | Fat Percentage Least Sq Mean (Treatment * Sex, F): 11.03 | Lean Mass Least Sq Mean (Treatment * Sex, F): 45.83 lbs | Total Mass Least Sq Mean (Treatment * Sex, F): 51.14 lbs | BMC Least Sq Mean (Treatment * Sex, M): 801.8 g | Fat Least Sq Mean (Treatment * Sex, M): 7.076 lbs | Fat Percentage Least Sq Mean (Treatment * Sex, M): 9.582 | Lean Mass Least Sq Mean (Treatment * Sex, M): 53.9 lbs | Total Mass Least Sq Mean (Treatment * Sex, M): 59.83 lbs | BMC Least Sq Mean (Treatment level, all dogs): 784.2 g | Fat Least Sq Mean (Treatment level, all dogs): 7.169 lbs | Fat Percentage Least Sq Mean (Treatment level, all dogs): 10.31 | Lean Mass Least Sq Mean (Treatment level, all dogs): 49.87 lbs | Total Mass Least Sq Mean (Treatment level, all dogs): 55.49 lb | Body mineral content (BMC), mixed model Estimate, term Treatment[L-carnitine] (model term): −22.85 | Body mineral content (BMC), mixed model Estimate, term Treatment[L-carnitine] * Sex[F] (model term): 37.64 | Body mineral content (BMC), mixed model Estimate, term Treatment[L-carnitine] * Sex[F] * Time[Final-Initial] (model term): −17.19 | Body mineral content (BMC), mixed model Estimate, term Treatment[L-carnitine] * Time[Final-Initial] (model term): 6.762 | Fat mass, mixed model Estimate, term Treatment[L-carnitine] (model term): −0.2546 | Fat mass, mixed model Estimate, term Treatment[L-carnitine] * Sex[F] (model term): −0.1764 | Fat mass, mixed model Estimate, term Treatment[L-carnitine] * Sex[F] * Time[Initial] (model term): 0.331 | Fat mass, mixed model Estimate, term Treatment[L-carnitine] * Time[Initial] (model term): 0.3408 | Fat percentage, mixed model Estimate, term Treatment[L-carnitine] (model term): 0.1573 | Fat percentage, mixed model Estimate, term Treatment[L-carnitine] * Sex[F] (model term): 0.281 | Fat percentage, mixed model Estimate, term Treatment[L-carnitine] * Sex[F] * Time[Final-Initial] (model term): −0.9515 | Fat percentage, mixed model Estimate, term Treatment[L-carnitine] * Time[Final-Initial] (model term): −0.8868 | Lean mass, mixed model Estimate, term Treatment[L-carnitine] (model term): −0.3966 | Lean mass, mixed model Estimate, term Treatment[L-carnitine] * Sex[F] (model term): 0.618 | Lean mass, mixed model Estimate, term Treatment[L-carnitine] * Sex[F] * Time[Final-Initial] (model term): 0.1808 | Lean mass, mixed model Estimate, term Treatment[L-carnitine] * Time[Final-Initial] (model term): −0.234 | Total Body Mass, mixed model Estimate, term Treatment[L-carnitine] (model term): −0.3536 | Total Body Mass, mixed model Estimate, term Treatment[L-carnitine] * Sex[F] (model term): 0.6569 | Total Body Mass, mixed model Estimate, term Treatment[L-carnitine] * Sex[F] * Time[Final-Initial] (model term): −0.3655 | Total Body Mass, mixed model Estimate, term Treatment[L-carnitine] * Time[Final-Initial] (model term): −0.8724
